Measurements published in patent US4204063A, “N(Aminoalkyl)-naphthalimides and their derivatives” (priority 1977, dated 1980).
Values after ≈ are worked out from the molar mass of the structure shown.

tested on: He-La cells; assay: cytotoxic activity on He-La cells (inhibition of cellular growth, protein determination); type: cell-based; conditions: Homo sapiens, HeLa, 72 h, read-out: ID50 (inhibitory dose 50, dose which inhibits cellular growth by 50%)
Experimental: Testing commences using a culture having approximately 125,000 cells per milliliter. They are dispersed with trypsin and are maintained in suspension by stirring until the moment they are placed in tubes.
After 72 hours the results are read.

| Compound | IC50 |
| --- | --- |
| Nc1cc2c3c(cccc3c1)C(=O)N(CCN1CCCC1)C2=O [Example 11, N-[2-(1-pyrrolidino)-ethyl]-3-amino-1,8-naphthalimide] | 1.5 µg/mL (≈ 4.85 µM) |

same assay, conditions: Homo sapiens, HeLa; He-La cells, monolayer, 72 hours, protein determination (modified Lowry); read-out: ID50 (inhibitory dose 50, dose which inhibits cellular growth by 50%)

| Compound | IC50 |
| --- | --- |
| CN(C)N1C(=O)c2cccc3cc(N)cc(c23)C1=O [Example 17, N-dimethylamino-3-amino-1,8-naphthalimide] | 100 µg/mL (≈ 392 µM) |
| CCN(CC)CCCN1C(=O)c2cccc3cc([N+](=O)[O-])cc(c23)C1=O [Example 2, N-(3-diethylaminopropyl)-3-nitro-1,8-naphthalimide] | 5 µg/mL (≈ 14.1 µM) |
| CN(C)CCN1C(=O)c2cccc3cc(N)cc(c23)C1=O [Example 9] | 2.5 µg/mL (≈ 8.82 µM) |
| O=C1c2cccc3cc(Cl)cc(c23)C(=O)N1CCN1CCCCC1 [Example 20, N-[2-(1-piperidino)-ethyl]-3-chloro-1,8-naphthalimide] | 3.5 µg/mL (≈ 10.2 µM) |
| CN(C)CCN1C(=O)c2cccc3cc(C(C)(C)C)cc(c23)C1=O [Example 33, N-(2-dimethylaminoethyl)-3-tert-butyl-1,8-naphthalimide] | 14 µg/mL (≈ 43.2 µM) |
| O=C1c2cccc3cc(Cl)cc(c23)C(=O)N1CCN1CCOCC1 [Example 21, N-[2-(1-morpholino)-ethyl]-3-chloro-1,8-naphthalimide] | 100 µg/mL (≈ 290 µM) |
| Nc1cc2c3c(cccc3c1)C(=O)N(CCN1CCCCC1)C2=O [Example 12, N-[2-(1-piperidino)-ethyl]-3-amino-1,8-naphthalimide] | 8 µg/mL (≈ 24.7 µM) |
| O=C1c2cccc3cc(O)cc(c23)C(=O)N1CCN1CCCC1 [Example 24, N-[2-(1-pyrrolidino)-ethyl]-3-hydroxy-1,8-naphthalimide] | 3.5 µg/mL (≈ 11.3 µM) |
| O=C1c2cccc3cc([N+](=O)[O-])cc(c23)C(=O)N1N1CCCC1 [Example 7, N-(1-pyrrolidino)-3-nitro-1,8-naphthalimide] | > 100 µg/mL |
| CN(C)CCN1C(=O)c2cccc3cc(O)cc(c23)C1=O [Example 23, N-(2-dimethylaminoethyl)-3-hydroxy-1,8-naphthalimide] | 3 µg/mL (≈ 10.6 µM) |
| CN(C)CCCN1C(=O)c2cccc3cc([N+](=O)[O-])cc(c23)C1=O [Example 1, N-(3-dimethylaminopropyl)-3-nitro-1,8-naphthalimide] | 1 µg/mL (≈ 3.05 µM) |
| CN1CCN(CCCN2C(=O)c3cccc4cc([N+](=O)[O-])cc(c34)C2=O)CC1 [Example 5, N-3-(4-methyl-1-piperazino)-propyl-3-nitro-1,8-naphthalimide] | 2 µg/mL (≈ 5.23 µM) |
| CCOC(=O)Nc1cc2c3c(cccc3c1)C(=O)N(CCN1CCCC1)C2=O [Example 29, N-[2-(1-pyrrolidino)-ethyl]-3-ethoxycarbonylamino-1,8-naphthalimide] | 10 µg/mL (≈ 26.2 µM) |
| O=C1c2cccc3cc([N+](=O)[O-])cc(c23)C(=O)N1CCN1CCOCC1 [Example 3, N-2-(N-morpholino)-ethyl-3-nitro-1,8-naphthalimide] | 20 µg/mL (≈ 56.3 µM) |
| CN(C)CCCN1C(=O)c2cccc3cc(Cl)cc(c23)C1=O [Example 22, N-(3-dimethylaminopropyl)-3-chloro-1,8-naphthalimide] | 2 µg/mL (≈ 6.31 µM) |
| CCOC(=O)Nc1cc2c3c(cccc3c1)C(=O)N(CCN(C)C)C2=O [Example 28, N-(dimethylaminoethyl)-3-ethoxycarbonylamino-1,8-naphthalimide] | 10 µg/mL (≈ 28.1 µM) |

| Compound | IC50 |
| --- | --- |
| COc1cc2c3c(cccc3c1)C(=O)N(CCN(C)C)C2=O [Example 26, N-(2-dimethylaminoethyl)-3-methoxy-1,8-naphthalimide] | 1.5 µg/mL (≈ 5.03 µM) |
| Nc1cc2c3c(cccc3c1)C(=O)N(CCN1CCOCC1)C2=O [Example 13, N-[2-(1-morpholino)-ethyl]-3-amino-1,8-naphthalimide] | 10 µg/mL (≈ 30.7 µM) |
| CCN(CC)CCCN1C(=O)c2cccc3cc(N)cc(c23)C1=O [Example 15, N-(3-diethylaminopropyl)-3-amino-1,8-naphthalimide] | 25 µg/mL (≈ 76.8 µM) |
| NC(=O)NN1C(=O)c2cccc3cc([N+](=O)[O-])cc(c23)C1=O [Example 8, N-ureyl-3-nitro-1,8-naphthalimide] | > 100 µg/mL |
| CC(=O)Nc1cc2c3c(cccc3c1)C(=O)N(CCN(C)C)C2=O [Example 30, N-(2-dimethylaminoethyl)-3-acetylamino-1,8-naphthalimide] | 4 µg/mL (≈ 12.3 µM) |
| O=C1c2cccc3cc(S(=O)(=O)O)cc(c23)C(=O)N1CCN1CCCC1 [Example 32, N-[2-(1-pyrrolidino)ethyl]-3-sulfo-1,8-naphthalimide] | > 100 µg/mL |
| CN1CCN(CCCN2C(=O)c3cccc4cc(N)cc(c34)C2=O)CC1 [Example 16, N-[3-(4-methyl-1-piperazino)-propyl]-3-amino-1,8-naphthalimide] | 10 µg/mL (≈ 28.4 µM) |
| COc1cc2c3c(cccc3c1)C(=O)N(CCN1CCCC1)C2=O [Example 27, N-[2-(1-pyrrolidino)-ethyl]-3-methoxy-1,8-naphthalimide] | 0.75 µg/mL (≈ 2.31 µM) |
| CCN(CC)CCN1C(=O)c2cccc3cc(N)cc(c23)C1=O [Example 10, N-(2-diethylaminoethyl)-3-amino-1,8-naphthalimide] | 3 µg/mL (≈ 9.63 µM) |
| CCN1CCCC(N2C(=O)c3cccc4cc([N+](=O)[O-])cc(c34)C2=O)C1 (stereo not drawn) [Example 4, N-3-(1-ethylpiperidino)-3-nitro-1,8-naphthalimide] | 6 µg/mL (≈ 17 µM) |
| CN(C)N1C(=O)c2cccc3cc([N+](=O)[O-])cc(c23)C1=O [Example 6, N-dimethylamino-3-nitro-1,8-naphthalimide] | > 100 µg/mL |
| CN(C)CCN1C(=O)c2cccc3cc(Cl)cc(c23)C1=O [Example 18, N-(2-dimethylaminoethyl)-3-chloro-1,8-naphthalimide] | 0.8 µg/mL (≈ 2.64 µM) |
| CN(C)CCCN1C(=O)c2cccc3cc(N)cc(c23)C1=O [Example 14, N-(3-dimethylaminopropyl)-3-amino-1,8-naphthalimide] | 5 µg/mL (≈ 16.8 µM) |
| O=C1c2cccc3cc(O)cc(c23)C(=O)N1CCN1CCOCC1 [Example 25, N-[2-(1-morpholino)-ethyl]-3-hydroxy-1,8-naphthalimide] | 100 µg/mL (≈ 306 µM) |
| O=C1c2cccc3cc(Cl)cc(c23)C(=O)N1CCN1CCCC1 [Example 19, N-[2-(1-pyrrolidino)-ethyl]-3-chloro-1,8-naphthalimide] | 1.5 µg/mL (≈ 4.56 µM) |
| CC(=O)Nc1cc2c3c(cccc3c1)C(=O)N(CCN1CCCC1)C2=O [Example 31, N-[2-(1-pyrrolidino)-ethyl]-3-acetylamino-1,8-naphthalimide] | 5 µg/mL (≈ 14.2 µM) |
